Experimental data published in patent US20240398947A1, “CAR T-CELL ADJUVANT THERAPIES” (CytoAgents, Inc., priority 2020, published 2024).

Key:
[1] = system: influenza (H5N1); settings: in vivo influenza (H5N1), Gemmus Pharma studies; cited from earlier work
[2] = system: CRS; experiment: Mouse model of CAR T-cell therapy induced CRS (Raji-luc tumor); settings: IP, BID for 7 days
[3] = system: normal human PBMC; experiment: Cytokine release assay in stimulated normal human PBMC (Luminex multiplex); assay type: cell-based; settings: for significant reduction of IL-1α / significant reduction of IL-1β: 5 donors
[4] = system: normal human PBMC; experiment: AlamarBlue cell viability of treated PBMC; assay type: cell-based; settings: PBMC of Donors 1-5, 48 hours post stimulation, GP1681 750 μM
Protocol: Following pre-treatment, cells were stimulated with either LPS or Poly (I:C). Twenty-four to forty-eight hours post-stimulation supernatants were collected and tested both for viability (48 hours) as well as concentrations of 29 different cytokines (24 hours.). Viability assessments confirmed the lack of GP1681-associated cell cytotoxicity. Statistical comparisons in individual donor results were conducted between all test groups within each donor group (between individual stimulant-treatment pairs) to determine efficacy of stimulation as well as any potential GP1681 effects on cytokine production. Additionally, statistical analysis was performed on pooled donor data for each cytokine stimulant-treatment pair to comprehensively determine cytokine suppression effects of GP1681 for each cytokine.
After resting the cells, 100 μl of GP1681 was added to appropriate wells at a final dosing concentration of 750 μM. […] For cell stimulation, 20 μL of the 1.0 ng/ml LPS solution or the 250 μg/ml Poly (I:C) solution were added to appropriate wells according to the group designation. Twenty-four hours later 100 uL of supernatant were collected from all wells and stored for cytokine analysis. Approximately four hours before final harvest, AlamarBlue dye was added to all wells. At forty-eight hours post stimulation all samples were collected, and supernatants tested for cell viability. […]

[5] = system: influenza (H1N1); assay type: in vivo, mice
[6] = LPS-stimulated PBMC, 24 h supernatant, DEX 1 μM, GP1681 750 μM
[7] = Poly(I:C)-stimulated PBMC, 24 h supernatant, DEX 1 μM, GP1681 750 μM
[8] = in vivo influenza (H1N1), current CytoAgents studies

CC#CC[C@H](C)[C@H](O)/C=C/[C@@H]1[C@H]2c3cccc(CCCC(=O)[O-])c3O[C@H]2C[C@H]1O.[Na+] [GP1681, esuberaprost sodium salt]
21: number of cytokines reduced of the 29 cytokines analyzed ([3]; LPS or Poly(I:C) stimulated PBMC, pooled and individual donor results)
no cytotoxicity: cytotoxicity (Alamar blue viability assessment) [4]
less than 2 fold: nominal reduction in the ex vivo production of IFNα ([3]; stimulated PBMC, statistically significant)
superior to dexamethasone: cytokine production, comparison with dexamethasone [2]
no significant repression: repression of IFNα concentrations ([5]; mouse, in vivo)
greater survival benefits: survival benefits over dexamethasone [2]
YES: significant reduction of IL-1α [3, 6] | significant reduction of IL-1β [3, 6] | significant reduction of CCL2 (MCP-1) [3, 6] | significant reduction of CCL3 (MIP1 α) [3, 6] | significant reduction of CCL5 (RANTES) [3, 6] | significant reduction of CXCL9 (MIG) [3, 6] | significant reduction of CXCL10 (IP-10) [3, 6] | significant reduction of FGF [3, 6] | significant reduction of GM-CSF [3, 6] | significant reduction of IFN-α2 [3, 6] | significant reduction of IFN-γ [3, 6] | significant reduction of IL-4 [3, 6] | significant reduction of IL-5 [3, 6] | significant reduction of IL-9 [3, 6] | significant reduction of IL-12 [3, 6] | significant reduction of IL-13 [3, 6] | significant reduction of IL-15 [3, 6] | significant reduction of IL-17 [3, 6] | significant reduction of IL-18 [3, 6] | significant reduction of PDGF [3, 6] | significant reduction of TNF α [3, 6] | significant reduction of IL-1α [3, 7] | significant reduction of IL-1β [3, 7] | significant reduction of CCL2 (MCP-1) [3, 7] | significant reduction of CCL5 (RANTES) [3, 7] | significant reduction of CXCL9 (MIG) [3, 7] | significant reduction of CXCL10 (IP-10) [3, 7] | significant reduction of IFN-α2 [3, 7] | significant reduction of IFN-γ [3, 7] | significant reduction of IL-4 [3, 7] | significant reduction of IL-5 [3, 7] | significant reduction of IL-12 [3, 7] | significant reduction of IL-13 [3, 7] | significant reduction of IL-15 [3, 7] | significant reduction of IL-18 [3, 7] | significant reduction of PDGF [3, 7] | significant reduction of TNF α [3, 7]
significantly suppressed: IL-8 production suppressed by treatment ([5]; mouse, in vivo)
reduced: IL-2 reduced by treatment [1] | IL-6 reduced by treatment [1] | IL-8 reduced by treatment [1] | IL-10 reduced by treatment [1] | IL-2 reduced by treatment [5, 8] | IL-6 reduced by treatment [5, 8] | IL-10 reduced by treatment [5, 8]
approximately 25: number of different cytokines whose production is down regulated ([3]; data from Gemmus Pharma, Inc studies and the present work together)
